Drawing on US10004701B2, “Methods and compositions for treating infection” (UNIVERSITY OF ROCHESTER, priority 2012, dated 2018), this text covers fold induction for 9 compounds.

Test in all cases: AK assay 384-well format, Prestwick library screening
One assay deals with E. coli. The format is cell-based, Escherichia coli. As to conditions: Escherichia coli, 3 h.
The test system of assay [1] is S. aureus strain USA300-0114. It is filed as cell-based, Staphylococcus aureus. The following applies: Staphylococcus aureus, USA300, 3 h.
For assay [2], the system named is A. baumannii strain 98-37-09. It is filed as cell-based, Acinetobacter baumannii. As to conditions: Acinetobacter baumannii, 983709, 3 h.
Another assay deals with E. cloacae. The format is cell-based, Enterobacter cloacae. As to conditions: Enterobacter cloacae, 3 h.
A further assay concerns E. faecium. It is filed as cell-based, Enterococcus faecium. The following applies: Enterococcus faecium, 3 h.
The subject of another assay is P. aeruginosa. It is filed as cell-based, Pseudomonas aeruginosa. The following applies: Pseudomonas aeruginosa, 3 h.
The next assay concerns K. pneumoniae. The format is cell-based, Klebsiella pneumoniae. As to conditions: Klebsiella pneumoniae, 3 h.
Where [3] appears, read: 50 μM final drug concentration, 384-well format, cutoff for positive-scoring molecules 3-fold increase, read-out: AK-based Prestwick Library Screening Results, E. coli (increase in extracellular AK activity).
Setting [4] is: 50 μM final drug concentration, 384-well format, cutoff for positive-scoring molecules 3-fold increase, read-out: AK-based Prestwick Library Screening Results, S. aureus (increase in extracellular AK activity).
[5] abbreviates: 50 μM final drug concentration, 384-well format, cutoff for positive-scoring molecules 3-fold increase, read-out: AK-based Prestwick Library Screening Results, A. baumannii (increase in extracellular AK activity).
Where [6] appears, read: 50 μM final drug concentration, 384-well format, cutoff for positive-scoring molecules 3-fold increase, read-out: AK-based Prestwick Library Screening Results, E. cloacae (increase in extracellular AK activity).
Setting [7] is: 50 μM final drug concentration, 384-well format, cutoff for positive-scoring molecules 3-fold increase, read-out: AK-based Prestwick Library Screening Results, E. faecium (increase in extracellular AK activity).
[8] abbreviates: 50 μM final drug concentration, 384-well format, cutoff for positive-scoring molecules 3-fold increase, read-out: AK-based Prestwick Library Screening Results, P. aeruginosa (increase in extracellular AK activity).
Where [9] appears, read: 50 μM final drug concentration, 384-well format, cutoff for positive-scoring molecules 3-fold increase, read-out: AK-based Prestwick Library Screening Results, K. pneumoniae (increase in extracellular AK activity).
[10] abbreviates: planktonic E. coli, 50 μM final drug concentration, 384-well, cutoff for positive-scoring molecules 3-fold increase, read-out: AK-based Prestwick Library Screening Results: E. coli (increase in extracellular AK activity).
The mark [11] stands for this setting: planktonic S. aureus, 50 μM final drug concentration, 384-well, cutoff for positive-scoring molecules 3-fold increase, read-out: AK-based Prestwick Library Screening Results: S. aureus (increase in extracellular AK activity).
Setting [12] is: planktonic A. baumannii, 50 μM final drug concentration, 384-well, cutoff for positive-scoring molecules 3-fold increase, read-out: AK-based Prestwick Library Screening Results: A. baumannii (increase in extracellular AK activity).
[13] abbreviates: planktonic E. cloacae, 50 μM final drug concentration, 384-well, cutoff for positive-scoring molecules 3-fold increase, read-out: AK-based Prestwick Library Screening Results: E. cloacae (increase in extracellular AK activity).
Setting [14] is: planktonic E. faecium, 50 μM final drug concentration, 384-well, cutoff for positive-scoring molecules 3-fold increase, read-out: AK-based Prestwick Library Screening Results: E. faecium (increase in extracellular AK activity).
[15] abbreviates: planktonic P. aeruginosa, 50 μM final drug concentration, 384-well, cutoff for positive-scoring molecules 3-fold increase, read-out: AK-based Prestwick Library Screening Results: P. aeruginosa (increase in extracellular AK activity).
Setting [16] is: planktonic K. pneumoniae, 50 μM final drug concentration, 384-well, cutoff for positive-scoring molecules 3-fold increase, read-out: AK-based Prestwick Library Screening Results: K. pneumoniae (increase in extracellular AK activity).

Molecules are shown by their SMILES. Read-outs that look alike come from different tables or passages of the source.

Regarding `O=C(Nc1ccc([N+](=O)[O-])cc1Cl)c1cc(Cl)ccc1O` [Niclosamide], the fold induction at 50 µM turned out to be 0.1 in the assay with E. coli (setting [3]); 0.4 in assay [1] (setting [4]); 0.2 in assay [2] (setting [5]); 0.5 in the assay on E. cloacae (setting [6]); 0.1 with E. faecium (setting [7]); 0.1 with P. aeruginosa (setting [8]). Besides, the fold induction at 50 µM in the assay with K. pneumoniae (setting [9]) was 0.1.

With `O=C(NCCO[N+](=O)[O-])c1cccnc1` [Nicorandil], the fold induction at 50 µM with E. coli (setting [3]) is 0.9; in assay [1] (setting [4]), 0.6; in assay [2] (setting [5]), 0.8; with E. cloacae (setting [6]), 0.9; in the assay on E. faecium (setting [7]), 0.9; in the assay on P. aeruginosa (setting [8]) it was 0.7. Further, the fold induction at 50 µM in the assay with K. pneumoniae (setting [9]) worked out at 0.8.

On to `COC(=O)C1=C(C)NC(C)=C(C(=O)OC)C1c1ccccc1[N+](=O)[O-]` [Nifedipine], for which the fold induction at 50 µM was 1.4 with E. coli (setting [10]); 0.5 in assay [1] (setting [11]); 1.5 in assay [2] (setting [12]); 1.4 with E. cloacae (setting [13]); 0.9 in the assay on E. faecium (setting [14]); 1 in the assay with P. aeruginosa (setting [15]). For the same compound, the fold induction at 50 µM in the assay with K. pneumoniae (setting [16]) was 0.9.

Consider `Cc1c(NC(=O)c2cccnc2)c(=O)n(-c2ccccc2)n1C` [Nifenazone], for which the fold induction at 50 µM was determined as 1.2 in the assay on E. coli (setting [10]); 1.3 in assay [1] (setting [11]); 1.6 in assay [2] (setting [12]); 1.2 in the assay on E. cloacae (setting [13]); 1 in the assay on E. faecium (setting [14]); 1.2 in the assay on P. aeruginosa (setting [15]). For the same compound, in the assay with K. pneumoniae (setting [16]), the fold induction at 50 µM was 1.

Consider `O=C(O)c1cccnc1Nc1cccc(C(F)(F)F)c1` [Niflumic acid], for which the fold induction at 50 µM in the assay with E. coli (setting [3]) is 0.6; in assay [1] (setting [4]), 0.7; in assay [2] (setting [5]), 0.7; with E. cloacae (setting [6]), 0.8; with E. faecium (setting [7]), 0.9; with P. aeruginosa (setting [8]), 0.7. Further, the fold induction at 50 µM in the assay with K. pneumoniae (setting [9]) stood at 0.6.

In the case of `O=C(N/N=C/c1ccc([N+](=O)[O-])o1)c1ccc(O)cc1` [Nifuroxazide], the fold induction at 50 µM with E. coli (50 μM final drug concentration, planktonic, cutoff for positive 3-fold increase, read-out: AK-based Prestwick Library Screening Results, E. coli (fold increase in extracellular AK activity)) was determined as 1.2; in assay [1] (50 μM final drug concentration, planktonic, cutoff for positive 3-fold increase, read-out: AK-based Prestwick Library Screening Results, S. aureus (fold increase in extracellular AK activity)), 0.7; in assay [2] (50 μM final drug concentration, planktonic, cutoff for positive 3-fold increase, read-out: AK-based Prestwick Library Screening Results, A. baumannii (fold increase in extracellular AK activity)), 1.1; in the assay with E. cloacae (50 μM final drug concentration, planktonic, cutoff for positive 3-fold increase, read-out: AK-based Prestwick Library Screening Results, E. cloacae (fold increase in extracellular AK activity)), 1.5; with E. faecium (50 μM final drug concentration, planktonic, cutoff for positive 3-fold increase, read-out: AK-based Prestwick Library Screening Results, E. faecium (fold increase in extracellular AK activity)), 1; in the assay with P. aeruginosa (50 μM final drug concentration, planktonic, cutoff for positive 3-fold increase, read-out: AK-based Prestwick Library Screening Results, P. aeruginosa (fold increase in extracellular AK activity)) it was 1.2. Also, the fold induction at 50 µM in the assay with K. pneumoniae (50 μM final drug concentration, planktonic, cutoff for positive 3-fold increase, read-out: AK-based Prestwick Library Screening Results, K. pneumoniae (fold increase in extracellular AK activity)) was 1.8.

`CC1CS(=O)(=O)CCN1/N=C/c1ccc([N+](=O)[O-])o1` (stereo not drawn) [Nifurtimox]: the fold induction at 50 µM came to 1.1 with E. coli (planktonic E. coli, 50 μM final drug concentration, positive cutoff 3-fold increase, read-out: AK-based Prestwick library screening result, E. coli (fold increase in extracellular AK activity)); 0.8 in assay [1] (planktonic S. aureus, 50 μM final drug concentration, positive cutoff 3-fold increase, read-out: AK-based Prestwick library screening result, S. aureus (fold increase in extracellular AK activity)); 1.5 in assay [2] (planktonic A. baumannii, 50 μM final drug concentration, positive cutoff 3-fold increase, read-out: AK-based Prestwick library screening result, A. baumannii (fold increase in extracellular AK activity)); 1.3 with E. cloacae (planktonic E. cloacae, 50 μM final drug concentration, positive cutoff 3-fold increase, read-out: AK-based Prestwick library screening result, E. cloacae (fold increase in extracellular AK activity)); 1 in the assay on E. faecium (planktonic E. faecium, 50 μM final drug concentration, positive cutoff 3-fold increase, read-out: AK-based Prestwick library screening result, E. faecium (fold increase in extracellular AK activity)); 1.1 in the assay on P. aeruginosa (planktonic P. aeruginosa, 50 μM final drug concentration, positive cutoff 3-fold increase, read-out: AK-based Prestwick library screening result, P. aeruginosa (fold increase in extracellular AK activity)). In the assay on K. pneumoniae (planktonic K. pneumoniae, 50 μM final drug concentration, positive cutoff 3-fold increase, read-out: AK-based Prestwick library screening result, K. pneumoniae (fold increase in extracellular AK activity)), the fold induction at 50 µM was found to be 1.2.

For the compound `CC1(C)NC(=O)N(c2ccc([N+](=O)[O-])c(C(F)(F)F)c2)C1=O` [Nilutamide], the fold induction at 50 µM with E. coli (50 μM final drug concentration, […], read-out: AK-based Prestwick Library Screening Results, E. coli (fold increase in extracellular AK activity)) was determined as 1.2; in assay [1] (50 μM final drug concentration, […], read-out: AK-based Prestwick Library Screening Results, S. aureus (fold increase in extracellular AK activity)) it was 1.3; in assay [2] (50 μM final drug concentration, […], read-out: AK-based Prestwick Library Screening Results, A. baumannii (fold increase in extracellular AK activity)), 1.2; with E. cloacae (50 μM final drug concentration, […], read-out: AK-based Prestwick Library Screening Results, E. cloacae (fold increase in extracellular AK activity)), 1.4; in the assay with E. faecium (50 μM final drug concentration, […], read-out: AK-based Prestwick Library Screening Results, E. faecium (fold increase in extracellular AK activity)) it was 1; in the assay with P. aeruginosa (50 μM final drug concentration, […], read-out: AK-based Prestwick Library Screening Results, P. aeruginosa (fold increase in extracellular AK activity)), 1.2. Also, the fold induction at 50 µM in the assay with K. pneumoniae (50 μM final drug concentration, […], read-out: AK-based Prestwick Library Screening Results, K. pneumoniae (fold increase in extracellular AK activity)) worked out at 1.

As for `CS(=O)(=O)Nc1ccc([N+](=O)[O-])cc1Oc1ccccc1` [Nimesulide], the fold induction at 50 µM in the assay on E. coli (read-out: AK-based Prestwick Library Screening Results, E. coli (increase in extracellular AK activity)) amounted to 0.9; in assay [1] (read-out: AK-based Prestwick Library Screening Results, S. aureus (increase in extracellular AK activity)), 0.7; in assay [2] (read-out: AK-based Prestwick Library Screening Results, A. baumannii (increase in extracellular AK activity)), 0.9; in the assay with E. cloacae (read-out: AK-based Prestwick Library Screening Results, E. cloacae (increase in extracellular AK activity)) it was 1.4; in the assay with E. faecium (read-out: AK-based Prestwick Library Screening Results, E. faecium (increase in extracellular AK activity)), 0.8; in the assay on P. aeruginosa (read-out: AK-based Prestwick Library Screening Results, P. aeruginosa (increase in extracellular AK activity)), 0.9. Moreover, the fold induction at 50 µM in the assay on K. pneumoniae (read-out: AK-based Prestwick Library Screening Results, K. pneumoniae (increase in extracellular AK activity)) amounted to 0.7.
